Converted amounts (≈) assume the structure as drawn.
What was measured:
Assay type in all cases: cell-based
A. baumannii 1484820 = experiment: MIC, broth microdilution (CLSI), A. baumannii 1484820; conditions: Acinetobacter baumannii, 5×10^5 cfu/mL, cation-adjusted Iso-Sensitest broth containing human Apo-transferrin, read-out: Minimum Inhibitory Concentration (MIC)
Procedure: (§1) Compound (I) of the present invention was evaluated for in vitro antimicrobial activity thereof.
(§2) Measurement of Minimum Inhibitory Concentration (MIC: μg/mL) was conducted according to CLSI (Clinical and Laboratory Standards Institute) method, and the amount of bacteria for inoculation was 5×10^5 cfu/mL, and cation-adjusted Iso-Sensitest broth containing human Apo-transferrin was used as a test medium, and the experiment was conducted using broth microdilution method.

P. aeruginosa 378057 = experiment: MIC, broth microdilution (CLSI), P. aeruginosa 378057; conditions: Pseudomonas aeruginosa, 5×10^5 cfu/mL, cation-adjusted Iso-Sensitest broth containing human Apo-transferrin, read-out: Minimum Inhibitory Concentration (MIC)
Procedure: as §1, §2

E. Coli ATCC BAA-200 = experiment: MIC, broth microdilution (CLSI), E. Coli ATCC BAA-200; conditions: Escherichia coli, ATCCBAA200; E. Coli ATCC BAA-200, SHV-4, ESBL producing strain; 5×10^5 cfu/mL; cation-adjusted Iso-Sensitest broth containing human Apo-transferrin; read-out: Minimum Inhibitory Concentration (MIC)
Procedure: as §1, §2

E. Coli ATCC BAA-196 = experiment: MIC, broth microdilution (CLSI), E. Coli ATCC BAA-196; conditions: Escherichia coli, ATCCBAA196; E. Coli ATCC BAA-196, TEM-10, ESBL producing strain; 5×10^5 cfu/mL; cation-adjusted Iso-Sensitest broth containing human Apo-transferrin; read-out: Minimum Inhibitory Concentration (MIC)
Procedure: as §1, §2

E. cloacae 1481026 = experiment: MIC, broth microdilution (CLSI), E. cloacae 1481026; conditions: Enterobacter cloacae, 5×10^5 cfu/mL, cation-adjusted Iso-Sensitest broth containing human Apo-transferrin, read-out: Minimum Inhibitory Concentration (MIC)
Procedure: as §1, §2

**Q.** For `CC(C)(O/N=C(\C(=O)N[C@@H]1C(=O)N2C(C(=O)O)=C(C[N+]3(CCN4C(=O)c5c(Cl)cc(O)c(O)c5C4=O)CCCC3)CS[C@H]12)c1csc(N)n1)C(=O)[O-]` [Compound I-3], which MIC (A. baumannii 1484820) is on record?
**A.** 0.25 µg/mL (≈ 0.321 µM)

**Q.** And the MIC (P. aeruginosa 378057)?
**A.** 0.063 µg/mL (≈ 0.081 µM)

**Q.** And the MIC (E. Coli ATCC BAA-200)?
**A.** 0.125 µg/mL (≈ 0.161 µM)

**Q.** And the MIC (E. Coli ATCC BAA-196)?
**A.** 0.125 µg/mL (≈ 0.161 µM)

**Q.** How did the MIC (A. baumannii 1484820) turn out when `CC(C)(O/N=C(\C(=O)N[C@@H]1C(=O)N2C(C(=O)O)=C(C[N+]34CCC(CN5C(=O)c6ccc(O)c(O)c6C5=O)(CC3)CC4)CS[C@H]12)c1csc(N)n1)C(=O)[O-]` [Compound I-5] was run?
**A.** 1 µg/mL (≈ 1.3 µM)

**Q.** What about the MIC (P. aeruginosa 378057) of the same compound?
**A.** ≤ 0.031 µg/mL

**Q.** And the MIC (E. Coli ATCC BAA-200)?
**A.** 0.25 µg/mL (≈ 0.325 µM)

**Q.** What about the MIC (E. cloacae 1481026) of the same compound?
**A.** 16 µg/mL (≈ 20.8 µM)

**Q.** What about the MIC (E. Coli ATCC BAA-196) of the same compound?
**A.** 0.25 µg/mL (≈ 0.325 µM)

**Q.** What does the source list for `CC(C)(O/N=C(\C(=O)N[C@@H]1C(=O)N2C(C(=O)O)=C(C[N+]3(CCN4C(=O)c5ccc(O)c(O)c5C4=O)CCCCC3)CS[C@H]12)c1csc(N)n1)C(=O)[O-]` [Compound I-7]?
**A.** MIC (A. baumannii 1484820): 0.25 µg/mL (≈ 0.33 µM); MIC (P. aeruginosa 378057): ≤ 0.031 µg/mL; MIC (E. Coli ATCC BAA-200): 0.125 µg/mL (≈ 0.165 µM); MIC (E. cloacae 1481026): 0.5 µg/mL (≈ 0.66 µM); MIC (E. Coli ATCC BAA-196): 0.063 µg/mL (≈ 0.0831 µM)

**Q.** `CC(C)(O/N=C(\C(=O)N[C@@H]1C(=O)N2C(C(=O)O)=C(C[N+]3(Cc4noc5cc(O)c(O)cc45)CCCC3)CS[C@H]12)c1csc(N)n1)C(=O)[O-]` [Compound I-9] was tested. Which MIC (A. baumannii 1484820) did it give?
**A.** 0.5 µg/mL (≈ 0.713 µM)

**Q.** And the MIC (P. aeruginosa 378057)?
**A.** 0.063 µg/mL (≈ 0.0898 µM)

**Q.** And the MIC (E. Coli ATCC BAA-200)?
**A.** 0.25 µg/mL (≈ 0.356 µM)

**Q.** And the MIC (E. cloacae 1481026)?
**A.** 4 µg/mL (≈ 5.7 µM)

**Q.** What about the MIC (E. Coli ATCC BAA-196) of the same compound?
**A.** 0.125 µg/mL (≈ 0.178 µM)

**Q.** Which MIC (A. baumannii 1484820) does the source give for `CC(C)(O/N=C(\C(=O)N[C@@H]1C(=O)N2C(c3nnn[nH]3)=C(C[N+]3(CCN4C(=O)c5ccc(O)c(O)c5C4=O)CCCC3)CS[C@H]12)c1csc(N)n1)C(=O)[O-]` [Compound I-11] here?
**A.** 0.063 µg/mL (≈ 0.0821 µM)

**Q.** What about the MIC (P. aeruginosa 378057) of the same compound?
**A.** ≤ 0.031 µg/mL

**Q.** And the MIC (E. Coli ATCC BAA-200)?
**A.** 0.125 µg/mL (≈ 0.163 µM)

**Q.** What about the MIC (E. cloacae 1481026) of the same compound?
**A.** 0.5 µg/mL (≈ 0.651 µM)

**Q.** What about the MIC (E. Coli ATCC BAA-196) of the same compound?
**A.** 0.063 µg/mL (≈ 0.0821 µM)

**Q.** Which MIC (A. baumannii 1484820) does the source give for `CC(C)(O/N=C(\C(=O)N[C@@H]1C(=O)N2C(c3nnn[nH]3)=C(C[N+]3(CCN4C(=O)c5ccc(O)c(O)c5C4=O)CCCC3)CS[C@H]12)c1nc(N)sc1Cl)C(=O)[O-]` [Compound I-14] here?
**A.** 0.125 µg/mL (≈ 0.156 µM)

**Q.** And the MIC (P. aeruginosa 378057)?
**A.** ≤ 0.031 µg/mL

**Q.** What about the MIC (E. Coli ATCC BAA-200) of the same compound?
**A.** 0.063 µg/mL (≈ 0.0785 µM)

**Q.** What about the MIC (E. cloacae 1481026) of the same compound?
**A.** 0.5 µg/mL (≈ 0.623 µM)

**Q.** What about the MIC (E. Coli ATCC BAA-196) of the same compound?
**A.** ≤ 0.031 µg/mL

**Q.** Which results are given for `CC(C)(O/N=C(\C(=O)N[C@@H]1C(=O)N2C(c3nnn[n-]3)=C(C[N+]3(CCN4C(=O)c5ccc(O)c(O)c5C4=O)CCCCC3)CS[C@H]12)c1csc(N)n1)C(=O)[O-].[Na+]` [Compound I-15]?
**A.** MIC (A. baumannii 1484820): 0.25 µg/mL; MIC (P. aeruginosa 378057): 0.063 µg/mL; MIC (E. Coli ATCC BAA-200): 0.125 µg/mL; MIC (E. cloacae 1481026): 0.5 µg/mL; MIC (E. Coli ATCC BAA-196): 0.125 µg/mL

**Q.** Which results are given for `CC[N+](CC)(CCN1C(=O)c2ccc(O)c(O)c2C1=O)CC1=C(C(=O)[O-])N2C(=O)[C@@H](NC(=O)/C(=N\OC(C)(C)C(=O)[O-])c3csc(N)n3)[C@H]2SC1.[Na+]` [Compound I-17]?
**A.** MIC (A. baumannii 1484820): 0.5 µg/mL; MIC (P. aeruginosa 378057): ≤ 0.031 µg/mL; MIC (E. Coli ATCC BAA-200): 0.063 µg/mL; MIC (E. cloacae 1481026): 0.5 µg/mL; MIC (E. Coli ATCC BAA-196): 0.063 µg/mL

**Q.** With `CC[N+](CC)(CCN1C(=O)c2ccc(O)c(O)c2C1=O)CC1=C(C(=O)[O-])N2C(=O)[C@@H](NC(=O)/C(=N\O[C@@H](CC(=O)[O-])C(=O)[O-])c3csc(N)n3)[C@H]2SC1.[Na+].[Na+]` [Compound I-18] as the compound, how does the MIC (A. baumannii 1484820) read?
**A.** 0.25 µg/mL

**Q.** And the MIC (P. aeruginosa 378057)?
**A.** ≤ 0.031 µg/mL

**Q.** What about the MIC (E. Coli ATCC BAA-200) of the same compound?
**A.** 0.063 µg/mL

**Q.** And the MIC (E. cloacae 1481026)?
**A.** 0.5 µg/mL

**Q.** And the MIC (E. Coli ATCC BAA-196)?
**A.** 0.063 µg/mL

**Q.** Which MIC (A. baumannii 1484820) does the source give for `CC[N+](CC)(CCN1C(=O)c2ccc(O)c(O)c2C1=O)CC1=C(c2nn[nH]n2)N2C(=O)[C@@H](NC(=O)/C(=N\OC(C)(C)C(=O)O)c3csc(N)n3)[C@H]2SC1.[Na+]` [Compound I-19] here?
**A.** 0.25 µg/mL

**Q.** What about the MIC (P. aeruginosa 378057) of the same compound?
**A.** ≤ 0.031 µg/mL

**Q.** What about the MIC (E. Coli ATCC BAA-200) of the same compound?
**A.** 0.063 µg/mL

**Q.** And the MIC (E. cloacae 1481026)?
**A.** 0.5 µg/mL

**Q.** And the MIC (E. Coli ATCC BAA-196)?
**A.** 0.063 µg/mL

**Q.** Which results are given for `CC(C)(O/N=C(\C(=O)N[C@@H]1C(=O)N2C(C(=O)[O-])=C(C[N+]34CCC(CNC(=O)C(=O)c5cc(O)c(O)c(F)c5)(CC3)CC4)CS[C@H]12)c1csc(N)n1)C(=O)[O-].[Na+]` [Compound I-20]?
**A.** MIC (A. baumannii 1484820): 4 µg/mL; MIC (P. aeruginosa 378057): ≤ 0.031 µg/mL; MIC (E. Coli ATCC BAA-200): 0.25 µg/mL; MIC (E. cloacae 1481026): 2 µg/mL; MIC (E. Coli ATCC BAA-196): 0.063 µg/mL

**Q.** What does the source list for `CC(C)(O/N=C(\C(=O)N[C@@H]1C(=O)N2C(C(=O)[O-])=C(C[N+]34CCC(Cn5ncc6cc(O)c(O)cc6c5=O)(CC3)C4)CS[C@H]12)c1csc(N)n1)C(=O)[O-].[Na+]` [Compound I-22]?
**A.** MIC (A. baumannii 1484820): 1 µg/mL; MIC (P. aeruginosa 378057): ≤ 0.031 µg/mL; MIC (E. Coli ATCC BAA-200): 0.125 µg/mL; MIC (E. cloacae 1481026): 1 µg/mL; MIC (E. Coli ATCC BAA-196): ≤ 0.031 µg/mL

— patent publication US20150344502A1, “CEPHEM COMPOUND” (SHIONOGI & CO., LTD., priority 2012, published 2015)
